Experimental data published in ChEMBL document CHEMBL1201862, “PubChem BioAssay data set” (2004).
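These data come from cells grown in 96-well plates and exposed to compound for 48 hours at five concentrations. GI50 marks 50% less growth.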 Calls of active or inactive are those of the source. Rule as the data show it: active = GI50 up to about 1.1 µM and inactive = higher.

Tests used:
Experiment in all cases: growth of human tumour cells (NCI), 48 h
[1] = test system: OVCAR-8
[2] = test system: SNB-75
[3] = test system: MDA-MB-231
[4] = test system: KM12
[5] = test system: PC-3
[6] = test system: SF-295
[7] = test system: NCI-H226
[8] = test system: SF-539
[9] = test system: 786-0
[10] = test system: COLO 205
[11] = test system: NCI-H23
[12] = test system: NCI-H522
[13] = test system: HOP-62
[14] = test system: MOLT-4
[15] = test system: M14
[16] = test system: Hs-578T
[17] = test system: RPMI-8226
[18] = test system: SK-OV-3
[19] = test system: CAKI-1
[20] = test system: SNB-19
[21] = test system: TK-10
[22] = test system: A549
[23] = test system: MDA-N
[24] = test system: A498
[25] = test system: SF-268
[26] = test system: T47D
[27] = test system: SK-MEL-2
[28] = test system: IGROV-1
[29] = test system: RXF 393
[30] = test system: SK-MEL-28
[31] = test system: Malme-3M
[32] = test system: NCI-H460
[33] = test system: MCF7
[34] = test system: HCT-15
[35] = test system: HCC 2998
[36] = test system: BT-549
[37] = test system: ACHN
[38] = test system: U-251
[39] = test system: NCI/ADR-RES
[40] = test system: HCT-116
[41] = test system: SN12C
[42] = test system: OVCAR-4
[43] = test system: UACC-257
[44] = test system: CCRF-CEM
[45] = test system: OVCAR-5
[46] = test system: HT-29
[47] = test system: UACC-62
[48] = test system: K562
[49] = test system: UO-31
[50] = test system: HOP-92
[51] = test system: LOX IMVI
[52] = test system: SR
[53] = test system: DU-145
[54] = test system: SW-620
[55] = test system: SK-MEL-5
[56] = test system: MDA-MB-435
[57] = test system: EKVX
[58] = test system: HL-60
[59] = test system: OVCAR-3

O=S(=O)(N=S(c1ccc(Cl)cc1)c1ccc(Cl)cc1)c1ccccc1
GI50 [1]: > 100 µM (inactive)
GI50 [2]: > 100 µM (inactive)
GI50 [3]: > 100 µM (inactive)
GI50 [4]: 96.6 µM (inactive)
GI50 [5]: 43.6 µM (inactive)
GI50 [6]: 68.5 µM (inactive)
GI50 [7]: > 100 µM (inactive)
GI50 [8]: > 100 µM (inactive)
GI50 [9]: > 100 µM (inactive)
GI50 [10]: > 100 µM (inactive)
GI50 [11]: 63.4 µM (inactive)
GI50 [12]: 70.3 µM (inactive)
GI50 [13]: > 100 µM (inactive)
GI50 [14]: 33.8 µM (inactive)
GI50 [15]: > 100 µM (inactive)
GI50 [16]: 56.9 µM (inactive)
GI50 [17]: 40.4 µM (inactive)
GI50 [18]: > 100 µM (inactive)
GI50 [19]: > 100 µM (inactive)
GI50 [20]: > 100 µM (inactive)
GI50 [21]: > 100 µM (inactive)
GI50 [22]: 74.5 µM (inactive)
GI50 [23]: 40.7 µM (inactive)
GI50 [24]: 19.7 µM (inactive)
GI50 [25]: > 100 µM (inactive)
GI50 [26]: 47.5 µM (inactive)
GI50 [27]: > 100 µM (inactive)
GI50 [28]: > 100 µM (inactive)
GI50 [29]: 65.3 µM (inactive)
GI50 [30]: > 100 µM (inactive)
GI50 [31]: > 100 µM (inactive)
GI50 [32]: 88.7 µM (inactive)
GI50 [33]: 50.9 µM (inactive)
GI50 [34]: 65.8 µM
GI50 [35]: > 100 µM (inactive)
GI50 [36]: > 100 µM (inactive)
GI50 [37]: > 100 µM (inactive)
GI50 [38]: > 100 µM (inactive)
GI50 [39]: 63 µM (inactive)
GI50 [40]: 59.3 µM (inactive)
GI50 [41]: 9.95 µM (inactive)
GI50 [42]: 58.5 µM (inactive)
GI50 [43]: 77.4 µM (inactive)
GI50 [44]: 59.4 µM (inactive)
GI50 [45]: > 100 µM (inactive)
GI50 [46]: 88.7 µM (inactive)
GI50 [47]: 60.3 µM (inactive)
GI50 [48]: 46.8 µM (inactive)
GI50 [49]: 45.1 µM (inactive)
GI50 [50]: > 100 µM (inactive)
GI50 [51]: > 100 µM (inactive)
GI50 [52]: 37.5 µM (inactive)
GI50 [53]: > 100 µM (inactive)
GI50 [54]: > 100 µM (inactive)
GI50 [55]: 71 µM (inactive)
GI50 [56]: 37.9 µM (inactive)
GI50 [57]: > 100 µM (inactive)
GI50 [58]: 27.5 µM (inactive)

CC(=O)Nc1cc(/C=C\C(=O)N2CC(CCl)c3c2cc(N)c2ccccc32)n(C)n1 (stereo not given)
GI50 [1]: 0.00168 µM (active)
GI50 [2]: 0.00165 µM (active)
GI50 [3]: 0.045 µM (active)
GI50 [4]: 0.0167 µM (active)
GI50 [5]: 0.0233 µM (active)
GI50 [6]: 0.0135 µM (active)
GI50 [7]: 0.00805 µM (active)
GI50 [8]: 0.00621 µM (active)
GI50 [9]: 0.00143 µM (active)
GI50 [10]: 0.0235 µM (active)
GI50 [11]: 0.00192 µM (active)
GI50 [13]: 0.00347 µM (active)
GI50 [14]: 0.00201 µM (active)
GI50 [15]: 0.0115 µM (active)
GI50 [16]: 0.0543 µM (active)
GI50 [17]: 0.0179 µM (active)
GI50 [18]: 0.0163 µM (active)
GI50 [59]: 0.0164 µM (active)
GI50 [19]: 0.00129 µM (active)
GI50 [20]: 0.0386 µM (active)
GI50 [21]: 0.0191 µM (active)
GI50 [22]: 0.00614 µM (active)
GI50 [23]: 0.0185 µM (active)
GI50 [24]: 0.00373 µM (active)
GI50 [25]: 0.0057 µM (active)
GI50 [26]: 0.00299 µM (active)
GI50 [27]: 0.0166 µM (active)
GI50 [28]: 0.0137 µM (active)
GI50 [29]: < 0.001 µM (active)
GI50 [30]: 0.0144 µM (active)
GI50 [31]: 0.012 µM (active)
GI50 [32]: < 0.001 µM (active)
GI50 [33]: 0.00204 µM (active)
GI50 [34]: 0.0233 µM
GI50 [35]: 0.0148 µM (active)
GI50 [36]: 0.0199 µM (active)
GI50 [37]: < 0.001 µM (active)
GI50 [38]: 0.0031 µM (active)
GI50 [39]: 0.0216 µM (active)
GI50 [40]: 0.00149 µM (active)
GI50 [41]: < 0.001 µM (active)
GI50 [42]: 0.017 µM (active)
GI50 [43]: 0.0132 µM (active)
GI50 [44]: < 0.001 µM (active)
GI50 [45]: 0.0215 µM (active)
GI50 [47]: 0.00423 µM (active)
GI50 [48]: 0.00417 µM (active)
GI50 [49]: 0.00284 µM (active)
GI50 [50]: 0.0194 µM (active)
GI50 [51]: 0.00879 µM (active)
GI50 [52]: < 0.001 µM (active)
GI50 [53]: < 0.001 µM (active)
GI50 [54]: 0.0123 µM (active)
GI50 [55]: 0.00269 µM (active)
GI50 [56]: 0.0169 µM (active)
GI50 [57]: 0.0251 µM (active)
GI50 [58]: < 0.001 µM (active)
